Structures are written as SMILES.

Test [1] deals with T1, Tyrosine-protein kinase JAK3 (Homo sapiens) (UniProt P52333).
T1 sequence (whole entry): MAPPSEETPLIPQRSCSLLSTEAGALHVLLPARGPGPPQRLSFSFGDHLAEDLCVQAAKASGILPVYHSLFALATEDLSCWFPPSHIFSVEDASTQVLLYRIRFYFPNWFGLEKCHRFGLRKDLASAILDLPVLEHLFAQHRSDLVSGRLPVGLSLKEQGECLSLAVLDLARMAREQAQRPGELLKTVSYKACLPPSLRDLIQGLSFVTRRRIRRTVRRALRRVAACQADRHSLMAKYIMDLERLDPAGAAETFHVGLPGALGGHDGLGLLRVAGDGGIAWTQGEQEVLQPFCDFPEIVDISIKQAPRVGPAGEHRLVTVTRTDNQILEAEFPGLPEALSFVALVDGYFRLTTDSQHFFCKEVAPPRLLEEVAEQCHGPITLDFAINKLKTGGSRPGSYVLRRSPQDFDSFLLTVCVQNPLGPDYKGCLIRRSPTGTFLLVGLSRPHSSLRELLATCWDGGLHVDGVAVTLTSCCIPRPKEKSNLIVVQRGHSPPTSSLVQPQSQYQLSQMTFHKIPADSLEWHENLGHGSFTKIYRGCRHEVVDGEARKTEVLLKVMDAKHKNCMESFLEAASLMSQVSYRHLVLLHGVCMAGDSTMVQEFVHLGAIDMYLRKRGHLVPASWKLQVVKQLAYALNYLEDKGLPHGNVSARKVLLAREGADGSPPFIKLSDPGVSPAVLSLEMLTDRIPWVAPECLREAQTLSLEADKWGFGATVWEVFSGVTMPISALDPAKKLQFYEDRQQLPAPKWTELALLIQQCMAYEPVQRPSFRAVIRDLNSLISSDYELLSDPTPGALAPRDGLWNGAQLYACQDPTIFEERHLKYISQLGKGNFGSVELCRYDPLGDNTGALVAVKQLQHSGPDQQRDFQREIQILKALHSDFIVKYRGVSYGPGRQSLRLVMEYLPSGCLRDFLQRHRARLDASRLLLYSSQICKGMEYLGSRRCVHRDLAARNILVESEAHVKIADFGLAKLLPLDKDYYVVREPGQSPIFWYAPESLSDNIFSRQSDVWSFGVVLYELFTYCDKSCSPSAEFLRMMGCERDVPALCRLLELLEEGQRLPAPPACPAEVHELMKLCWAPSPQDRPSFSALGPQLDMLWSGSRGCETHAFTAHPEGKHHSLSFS
Put plainly: Selectivity interaction (Upstate Kinase Profiler service (Millipore)) EUB0000056c JAK3. The following applies: at 1 µM.

Test [2] has as its target Fibroblast growth factor receptor 3 (Homo sapiens, UniProt P22607). Put plainly: Selectivity interaction (Kinase panel (DSF assay)) EUB0001558a FGFR3.
The target of test [3] is T2, Histone-lysine N-methyltransferase SMYD3 (Homo sapiens) (UniProt Q9H7B4).
T2 sequence (whole entry): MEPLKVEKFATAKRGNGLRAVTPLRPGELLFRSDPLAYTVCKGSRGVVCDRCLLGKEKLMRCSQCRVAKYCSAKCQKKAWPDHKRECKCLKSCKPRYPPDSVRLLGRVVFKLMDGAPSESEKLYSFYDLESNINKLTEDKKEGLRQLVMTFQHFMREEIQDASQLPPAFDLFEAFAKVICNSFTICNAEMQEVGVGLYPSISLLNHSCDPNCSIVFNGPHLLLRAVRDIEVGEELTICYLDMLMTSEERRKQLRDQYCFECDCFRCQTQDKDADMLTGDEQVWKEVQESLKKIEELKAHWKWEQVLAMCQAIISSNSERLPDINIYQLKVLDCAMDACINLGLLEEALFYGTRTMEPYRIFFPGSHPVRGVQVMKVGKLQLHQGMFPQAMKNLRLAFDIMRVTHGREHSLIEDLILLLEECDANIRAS
Put plainly: Selectivity interaction (Methyltransferase screen (radiometric assays, panel of 8 PRMTs, 21 protein lysine methyltransferases, 3 DNA methyltransferases, and one RNA methyltransferase)) EUB0000271b SMYD3.

The next test concerns the target SRSF protein kinase 1 (Homo sapiens, UniProt Q96SB4). Briefly: Selectivity interaction (KinomeScan (DiscoverX)) EUB0000045b SRPK1.

Chain of SRSF protein kinase 1 (Q96SB4 whole entry): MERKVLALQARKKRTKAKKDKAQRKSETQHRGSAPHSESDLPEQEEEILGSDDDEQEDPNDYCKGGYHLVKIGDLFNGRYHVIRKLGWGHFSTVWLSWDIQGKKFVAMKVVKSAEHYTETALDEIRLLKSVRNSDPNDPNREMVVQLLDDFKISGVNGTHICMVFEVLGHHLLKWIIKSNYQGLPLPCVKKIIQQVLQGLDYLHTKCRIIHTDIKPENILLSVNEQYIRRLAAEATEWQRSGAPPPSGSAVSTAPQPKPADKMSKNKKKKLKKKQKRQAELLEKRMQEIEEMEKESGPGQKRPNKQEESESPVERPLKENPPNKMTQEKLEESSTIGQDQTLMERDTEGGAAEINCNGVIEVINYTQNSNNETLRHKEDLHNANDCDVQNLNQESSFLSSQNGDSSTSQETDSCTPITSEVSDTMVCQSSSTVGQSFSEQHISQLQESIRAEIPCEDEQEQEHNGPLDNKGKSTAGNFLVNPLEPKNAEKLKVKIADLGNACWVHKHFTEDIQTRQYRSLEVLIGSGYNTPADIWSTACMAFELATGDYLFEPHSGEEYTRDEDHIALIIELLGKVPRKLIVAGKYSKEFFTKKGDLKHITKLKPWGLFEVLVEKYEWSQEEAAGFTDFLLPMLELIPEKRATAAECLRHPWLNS
Chain of Fibroblast growth factor receptor 3 (P22607 23-806 limits assumed): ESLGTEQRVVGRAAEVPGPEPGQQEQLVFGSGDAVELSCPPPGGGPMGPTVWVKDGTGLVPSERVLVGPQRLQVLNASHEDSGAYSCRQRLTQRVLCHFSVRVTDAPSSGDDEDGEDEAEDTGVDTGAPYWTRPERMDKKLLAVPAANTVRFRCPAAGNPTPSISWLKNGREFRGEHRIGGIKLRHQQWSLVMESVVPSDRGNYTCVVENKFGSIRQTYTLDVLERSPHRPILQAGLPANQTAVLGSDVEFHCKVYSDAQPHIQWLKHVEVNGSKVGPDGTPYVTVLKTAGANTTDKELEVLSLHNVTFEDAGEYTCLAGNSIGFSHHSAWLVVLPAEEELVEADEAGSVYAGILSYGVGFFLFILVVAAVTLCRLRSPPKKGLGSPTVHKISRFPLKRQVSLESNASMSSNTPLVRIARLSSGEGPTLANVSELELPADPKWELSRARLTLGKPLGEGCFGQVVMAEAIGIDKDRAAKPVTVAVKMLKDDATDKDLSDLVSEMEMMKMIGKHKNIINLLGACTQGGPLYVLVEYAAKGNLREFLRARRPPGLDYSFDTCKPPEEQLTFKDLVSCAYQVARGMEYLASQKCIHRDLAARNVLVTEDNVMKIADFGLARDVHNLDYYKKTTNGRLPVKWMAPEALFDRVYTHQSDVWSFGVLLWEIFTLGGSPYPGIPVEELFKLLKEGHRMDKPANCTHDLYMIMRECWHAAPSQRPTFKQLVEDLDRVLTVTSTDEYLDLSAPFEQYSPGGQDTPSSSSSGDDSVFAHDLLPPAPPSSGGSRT

`Cc1ccc(-c2ccc3c(ccc4sc5c(c43)NC[C@@H](C)NC5=O)n2)cn1` registered a % of inhibition in test [1] of 4%.

For the molecule `CC(C)(O)[C@H](F)CN1Cc2cc(NC(=O)c3cnn4cccnc34)c(N3CCOCC3)cc2C1=O`, in test [2], the dTM turned out to be 2.5 K. As for `Cc1cc(C)cc([C@@H]2c3cc(C)ccc3NC(=O)CN2C(=O)c2ccc(Br)s2)c1`, the % of activity in test [3] (at 1 µM) came out at 100%; in test [3] (at 10 µM), 98.3%. For `C=CC(=O)Nc1cc(-n2c(=O)ccc3cnc4ccc(-c5ccc(NS(C)(=O)=O)cc5)cc4c32)ccc1C`, the % of control amounted to 78% on SRSF protein kinase 1 (at 1 µM) and 100% on SRSF protein kinase 1 (at 10 µM).

(Values after ChEMBL document CHEMBL5465560, “Selectivity Literature for EUbOPEN Chemogenomic Library” (2024).)
